Assay results from ChEMBL document CHEMBL5608211, “Antibody-drug conjugates for targeted cancer therapy: Recent advances in potential payloads” (Eur J Med Chem, 2024).

Tests used:
CCRF-CEM = assay: Cytotoxicity against human CCRF-CEM cells assessed as cell growth inhibition by measuring lethal concentration by MTT assay; format: functional; conditions: read-out: LC50 (the source's name)
HL-60 = assay: Cytotoxicity against human HL-60 cells assessed as cell growth inhibition by measuring lethal concentration by MTT assay; format: functional; conditions: read-out: LC50 (the source's name)
MOLT-4 = assay: Cytotoxicity against human MOLT-4 cells assessed as cell growth inhibition by measuring lethal concentration by MTT assay; format: functional; conditions: read-out: LC50 (the source's name)
RPMI-8226 = assay: Cytotoxicity against human RPMI-8226 cells assessed as cell growth inhibition by measuring lethal concentration by MTT assay; format: functional; conditions: read-out: LC50 (the source's name)
A549 = assay: Cytotoxicity against human A549 cells assessed as cell growth inhibition by measuring lethal concentration by MTT assay; format: functional; conditions: read-out: LC50 (the source's name)
EKVX = assay: Cytotoxicity against human EKVX cells assessed as cell growth inhibition by measuring lethal concentration by MTT assay; format: functional; conditions: read-out: LC50 (the source's name)
HOP-62 = assay: Cytotoxicity against human HOP-62 cells assessed as cell growth inhibition by measuring lethal concentration by MTT assay; format: functional; conditions: read-out: LC50 (the source's name)
HOP-92 = assay: Cytotoxicity against human HOP-92 cells assessed as cell growth inhibition by measuring lethal concentration by MTT assay; format: functional; conditions: read-out: LC50 (the source's name)
NCI-H226 = assay: Cytotoxicity against human NCI-H226 cells assessed as cell growth inhibition by measuring lethal concentration by MTT assay; format: functional; conditions: read-out: LC50 (the source's name)
NCI-H23 = assay: Cytotoxicity against human NCI-H23 cells assessed as cell growth inhibition by measuring lethal concentration by MTT assay; format: functional; conditions: read-out: LC50 (the source's name)
[1] = Cytotoxicity against human […] cells assessed as cell growth inhibition by measuring lethal concentration by MTT assay; format: functional; conditions: read-out: LC50 (the source's name)
NCI-H460 = assay: Cytotoxicity against human NCI-H460 cells assessed as cell growth inhibition by measuring lethal concentration by MTT assay; format: functional; conditions: read-out: LC50 (the source's name)
NCI-H522 = assay: Cytotoxicity against human NCI-H522 cells assessed as cell growth inhibition by measuring lethal concentration by MTT assay; format: functional; conditions: read-out: LC50 (the source's name)
COLO 205 = assay: Cytotoxicity against human COLO 205 cells assessed as cell growth inhibition by measuring lethal concentration by MTT assay; format: functional; conditions: read-out: LC50 (the source's name)
HCC 2998 = assay: Cytotoxicity against human HCC 2998 cells assessed as cell growth inhibition by measuring lethal concentration by MTT assay; format: functional; conditions: read-out: LC50 (the source's name)
HCT-116 = assay: Cytotoxicity against human HCT-116 cells assessed as cell growth inhibition by measuring lethal concentration by MTT assay; format: functional; conditions: read-out: LC50 (the source's name)
HCT-15 = assay: Cytotoxicity against human HCT-15 cells assessed as cell growth inhibition by measuring lethal concentration by MTT assay; format: functional; conditions: read-out: LC50 (the source's name)
HT-29 = assay: Cytotoxicity against human HT-29 cells assessed as cell growth inhibition by measuring lethal concentration by MTT assay; format: functional; conditions: read-out: LC50 (the source's name)
KM12 = assay: Cytotoxicity against human KM12 cells assessed as cell growth inhibition by measuring lethal concentration by MTT assay; format: functional; conditions: read-out: LC50 (the source's name)
SW-620 = assay: Cytotoxicity against human SW620 cells assessed as cell growth inhibition by measuring lethal concentration by MTT assay; format: functional; conditions: read-out: LC50 (the source's name)
SF-268 = assay: Cytotoxicity against human SF-268 cells assessed as cell growth inhibition by measuring lethal concentration by MTT assay; format: functional; conditions: read-out: LC50 (the source's name)
SF-295 = assay: Cytotoxicity against human SF-295 cells assessed as cell growth inhibition by measuring lethal concentration by MTT assay; format: functional; conditions: read-out: LC50 (the source's name)
SF-539 = assay: Cytotoxicity against human SF-539 cells assessed as cell growth inhibition by measuring lethal concentration by MTT assay; format: functional; conditions: read-out: LC50 (the source's name)
SNB-19 = assay: Cytotoxicity against human SNB-19 cells assessed as cell growth inhibition by measuring lethal concentration by MTT assay; format: functional; conditions: read-out: LC50 (the source's name)
SNB-75 = assay: Cytotoxicity against human SNB-75 cells assessed as cell growth inhibition by measuring lethal concentration by MTT assay; format: functional; conditions: read-out: LC50 (the source's name)
U-251 = assay: Cytotoxicity against human U-251 cells assessed as cell growth inhibition by measuring lethal concentration by MTT assay; format: functional; conditions: read-out: LC50 (the source's name)
Malme-3M = assay: Cytotoxicity against human Malme-3M cells assessed as cell growth inhibition by measuring lethal concentration by MTT assay; format: functional; conditions: read-out: LC50 (the source's name)
M14 = assay: Cytotoxicity against human M14 cells assessed as cell growth inhibition by measuring lethal concentration by MTT assay; format: functional; conditions: read-out: LC50 (the source's name)
SK-MEL-2 = assay: Cytotoxicity against human SK-MEL-2 cells assessed as cell growth inhibition by measuring lethal concentration by MTT assay; format: functional; conditions: read-out: LC50 (the source's name)
SK-MEL-28 = assay: Cytotoxicity against human SK-MEL-28 cells assessed as cell growth inhibition by measuring lethal concentration by MTT assay; format: functional; conditions: read-out: LC50 (the source's name)
SK-MEL-5 = assay: Cytotoxicity against human SK-MEL-5 cells assessed as cell growth inhibition by measuring lethal concentration by MTT assay; format: functional; conditions: read-out: LC50 (the source's name)
UACC-257 = assay: Cytotoxicity against human UACC-257 cells assessed as cell growth inhibition by measuring lethal concentration by MTT assay; format: functional; conditions: read-out: LC50 (the source's name)
UACC-62 = assay: Cytotoxicity against human UACC-62 cells assessed as cell growth inhibition by measuring lethal concentration by MTT assay; format: functional; conditions: read-out: LC50 (the source's name)
IGROV-1 = assay: Cytotoxicity against human IGROV-1 cells assessed as cell growth inhibition by measuring lethal concentration by MTT assay; format: functional; conditions: read-out: LC50 (the source's name)
OVCAR-3 = assay: Cytotoxicity against human OVCAR-3 cells assessed as cell growth inhibition by measuring lethal concentration by MTT assay; format: functional; conditions: read-out: LC50 (the source's name)
OVCAR-4 = assay: Cytotoxicity against human OVCAR-4 cells assessed as cell growth inhibition by measuring lethal concentration by MTT assay; format: functional; conditions: read-out: LC50 (the source's name)
OVCAR-5 = assay: Cytotoxicity against human OVCAR-5 cells assessed as cell growth inhibition by measuring lethal concentration by MTT assay; format: functional; conditions: read-out: LC50 (the source's name)
OVCAR-8 = assay: Cytotoxicity against human OVCAR-8 cells assessed as cell growth inhibition by measuring lethal concentration by MTT assay; format: functional; conditions: read-out: LC50 (the source's name)
SK-OV-3 = assay: Cytotoxicity against human SK-OV-3 cells assessed as cell growth inhibition by measuring lethal concentration by MTT assay; format: functional; conditions: read-out: LC50 (the source's name)
786-0 = assay: Cytotoxicity against human 786-0 cells assessed as cell growth inhibition by measuring lethal concentration by MTT assay; format: functional; conditions: read-out: LC50 (the source's name)
A498 = assay: Cytotoxicity against human A498 cells assessed as cell growth inhibition by measuring lethal concentration by MTT assay; format: functional; conditions: read-out: LC50 (the source's name)
ACHN = assay: Cytotoxicity against human ACHN cells assessed as cell growth inhibition by measuring lethal concentration by MTT assay; format: functional; conditions: read-out: LC50 (the source's name)
CAKI-1 = assay: Cytotoxicity against human CAKI-1 cells assessed as cell growth inhibition by measuring lethal concentration by MTT assay; format: functional; conditions: read-out: LC50 (the source's name)
SN12C = assay: Cytotoxicity against human SN12C cells assessed as cell growth inhibition by measuring lethal concentration by MTT assay; format: functional; conditions: read-out: LC50 (the source's name)
TK-10 = assay: Cytotoxicity against human TK-10 cells assessed as cell growth inhibition by measuring lethal concentration by MTT assay; format: functional; conditions: read-out: LC50 (the source's name)
UO-31 = assay: Cytotoxicity against human UO-31 cells assessed as cell growth inhibition by measuring lethal concentration by MTT assay; format: functional; conditions: read-out: LC50 (the source's name)
PC-3 = assay: Cytotoxicity against human PC-3 cells assessed as cell growth inhibition by measuring lethal concentration by MTT assay; format: functional; conditions: read-out: LC50 (the source's name)
DU-145 = assay: Cytotoxicity against human DU-145 cells assessed as cell growth inhibition by measuring lethal concentration by MTT assay; format: functional; conditions: read-out: LC50 (the source's name)
NCI/ADR-RES = assay: Cytotoxicity against human MCF7ADR cells assessed as cell growth inhibition by measuring lethal concentration by MTT assay; format: functional; conditions: read-out: LC50 (the source's name)
Hs-578T = assay: Cytotoxicity against human Hs-578T cells assessed as cell growth inhibition by measuring lethal concentration by MTT assay; format: functional; conditions: read-out: LC50 (the source's name)
MDA-MB-435 = assay: Cytotoxicity against human MDA-MB-435 cells assessed as cell growth inhibition by measuring lethal concentration by MTT assay; format: functional; conditions: read-out: LC50 (the source's name)
MDA-N = assay: Cytotoxicity against human MDA-N cells assessed as cell growth inhibition by measuring lethal concentration by MTT assay; format: functional; conditions: read-out: LC50 (the source's name)
BT-549 = assay: Cytotoxicity against human BT-549 cells assessed as cell growth inhibition by measuring lethal concentration by MTT assay; format: functional; conditions: read-out: LC50 (the source's name)
T47D = assay: Cytotoxicity against human T47D cells assessed as cell growth inhibition by measuring lethal concentration by MTT assay; format: functional; conditions: read-out: LC50 (the source's name)
MES-SA = assay: Cytotoxicity against human MES-SA cells assessed as inhibition of cell growth incubated for 72 hrs by CellTiter-Glo luminescent assay; format: functional, cell-based
EMT6 = assay: Cytotoxicity against mouse EMT6 cells assessed as inhibition of cell growth incubated for 3 days by SRB assay; format: functional, cell-based; conditions: EMT6, 72 h
DEL = assay: Cytotoxicity against human DEL cells assessed as inhibition of cell growth incubated for 4 days by CellTiter-Glo luminescent assay; format: functional, cell-based; conditions: 96 h

C=C1C[C@H]2C=Nc3cc(OCCCCCCCCCCOc4cc5c(cc4OC)C(=O)N4CC(=C)C[C@H]4C=N5)c(OC)cc3C(=O)N2C1
CC50 (CCRF-CEM): 0.14 nM | CC50 (HL-60): 0.14 nM | CC50 (MOLT-4): 0.14 nM | CC50 (RPMI-8226): 0.14 nM | CC50 (A549): 0.14 nM | CC50 (EKVX): 0.14 nM | CC50 (HOP-62): 0.14 nM | CC50 (HOP-92): 0.14 nM | CC50 (NCI-H226): 0.14 nM | CC50 (NCI-H23): 0.14 nM | CC50 [1]: 0.14 nM | CC50 (NCI-H460): 0.14 nM | CC50 (NCI-H522): 0.14 nM | CC50 (COLO 205): 0.14 nM | CC50 (HCC 2998): 0.14 nM | CC50 (HCT-116): 0.14 nM | CC50 (HCT-15): 0.14 nM | CC50 (HT-29): 0.14 nM | CC50 (KM12): 0.14 nM | CC50 (SW-620): 0.14 nM | CC50 (SF-268): 0.14 nM | CC50 (SF-295): 0.14 nM | CC50 (SF-539): 0.14 nM | CC50 (SNB-19): 0.14 nM | CC50 (SNB-75): 0.14 nM | CC50 (U-251): 0.14 nM | CC50 (Malme-3M): 0.14 nM | CC50 (M14): 0.14 nM | CC50 (SK-MEL-2): 0.14 nM | CC50 (SK-MEL-28): 0.14 nM | CC50 (SK-MEL-5): 0.14 nM | CC50 (UACC-257): 0.14 nM | CC50 (UACC-62): 0.14 nM | CC50 (IGROV-1): 0.14 nM | CC50 (OVCAR-3): 0.14 nM | CC50 (OVCAR-4): 0.14 nM | CC50 (OVCAR-5): 0.14 nM | CC50 (OVCAR-8): 0.14 nM | CC50 (SK-OV-3): 0.14 nM | CC50 (786-0): 0.14 nM | CC50 (A498): 0.14 nM | CC50 (ACHN): 0.14 nM | CC50 (CAKI-1): 0.14 nM | CC50 (SN12C): 0.14 nM | CC50 (TK-10): 0.14 nM | CC50 (UO-31): 0.14 nM | CC50 (PC-3): 0.14 nM | CC50 (DU-145): 0.14 nM | CC50 (NCI/ADR-RES): 0.14 nM | CC50 (Hs-578T): 0.14 nM | CC50 (MDA-MB-435): 0.14 nM | CC50 (MDA-N): 0.14 nM | CC50 (BT-549): 0.14 nM | CC50 (T47D): 0.14 nM

COc1c2c(c(O)c3c4c(c(C)cc13)C1O[C@@]3(C(OC)OC)OC1[C@@](O[C@H]1C[C@@H](O)[C@@](O)(C(C)=O)[C@@H](C)O1)(O4)C31CO1)C(=O)[C@@H](C)C[C@@H]2O[C@H]1C[C@@](C)(O)[C@H](OC(C)=O)[C@@H](C)O1 (some centres not stated)
IC50 (MES-SA): 0.74 nM

COc1cc2c(cc1OCCCCCC(=O)N1C[C@H](CCl)c3c1cc(O)c1ccccc31)N=C[C@@H]1CCCN1C2=O
IC50 (EMT6): 0.0078 nM

CC[C@@]1(O)C(=O)OCc2c1cc1n(c2=O)Cc2c-1nc1cc3c(cc1c2CN)OCO3
IC50 (DEL): 0.7 nM
